Measurements from article PMC2972656 (Bioorganic & medicinal chemistry, 2010).
Counter-ions that a name gives are not always drawn.

What was measured:
[1] = target: T1, α1β3γ2 GABAA/BzR (Homo sapiens, UniProt P14867+P18507); conditions: binding; cited from earlier work
[2] = test system: other receptors; experiment: NIMH supported PDSP screen; assay type: binding
[3] = test system: alcohol preferring (P) rats; conditions: 15–60 mg/kg, comparable with chlordiazepoxide; cited from earlier work
[4] = target: T1, α1β3γ2 GABAA/BzR; experiment: [3H]flunitrazepam competition binding, α1β3γ2; conditions: for selectivity for the α1β3γ2 subtype: enantiomeric sec-butyl esters
[5] = target: α5β3γ2 GABAA/BzR (Homo sapiens, UniProt P18507+P31644); experiment: [3H]flunitrazepam competition binding, α5β3γ2
[6] = target: α2β3γ2 GABAA/BzR (Homo sapiens, UniProt P18507+P47869); experiment: [3H]flunitrazepam competition binding, α2β3γ2
[7] = test system: BzR; experiment: Binding to BzR, overall statement; design: species or system human; conditions: Boc protection at position-9

## CCCOc1cc2c(cn1)[nH]c1ccccc12 [2(3-PBC), 3-propoxy-β-carboline hydrochloride]
[1]
  selectivity for the α1 site over the α5 subtype: over 150 fold
  selectivity for the α1 subtype over the α2 and α3 receptors: 10 fold
[2]
  interactions at other receptors: neither βCCT, 3PBC, nor WYS8 exhibited significant interactions at other receptors
[3]
  effects in the plus maze: anxiolytic effects

## C#Cc1ccc2[nH]c3cnc(C(=O)OC(C)(C)C)cc3c2c1 [7(WYS8), 6-Ethynl-9H-β-carboline-3-carboxylic acid t-butyl ester]
[2]
  interactions at other receptors: neither βCCT, 3PBC, nor WYS8 exhibited significant interactions at other receptors

## C[C@@H](OC(=O)c1cc2c(cn1)[nH]c1ccccc12)C(F)(F)F [compound 22, (R)-1,1,1-Trifluoroisopropyl β-carboline-3-carboxylate]
[4]; binding
  selectivity for α1 isoforms over α5 isoforms: ~70 fold

## CC[C@H](C)OC(=O)c1cc2c(cn1)[nH]c1ccccc12 [compound 23, (S)-β-Carboline-3-carboxylic acid sec-butyl ester]
[5]
  Ki: 1440 nM
[4]; binding
  selectivity for the α1β3γ2 subtype: ~4 fold

## CC[C@@H](C)OC(=O)c1cc2c(cn1)[nH]c1ccccc12 [compound 24, (R)-β-Carboline-3-carboxylic acid sec-butyl ester]
[4]; binding
  selectivity for the α1β3γ2 subtype: ~4 fold
[6]
  Ki: 32.5 nM

## c1ccc(COc2cc3c4ccccc4nc-3c[nH]2)cc1 [compound 35, 3-benzyloxy β-carboline]
[4]
  Ki: 830 nM

## CC(C)COc1cc2c(cn1)[nH]c1ccccc12 [compound 37]
[5]
  Ki: ≥ 1000 nM

## C#Cc1ccc2c(c1)c1cc(C(=O)OC(C)(C)C)ncc1n2C(=O)OC(C)(C)C [compound 40]
[7]
  binding to BzR: did not bind to BzR at all

## CC(C)(C)OC(=O)c1cc2c3cc(I)ccc3n(C(=O)OC(C)(C)C)c2cn1 [compound 41]
[7]
  binding to BzR: did not bind to BzR at all
